Assay results from patent US8461328B2, “Tricyclic heterocyclic compounds, compositions and methods of use thereof” (Genentech, Inc., priority 2010, dated 2013).

How the values were obtained:
Type in all cases: biochemical
[1] = molecular target: T1, TYK2 (Homo sapiens, UniProt P29597); assay: TYK2 inhibition (Table 4)
T1 construct: made in house; host or cells: SF9 insect cells (baculovirus)
T1 sequence (P29597 873-1187): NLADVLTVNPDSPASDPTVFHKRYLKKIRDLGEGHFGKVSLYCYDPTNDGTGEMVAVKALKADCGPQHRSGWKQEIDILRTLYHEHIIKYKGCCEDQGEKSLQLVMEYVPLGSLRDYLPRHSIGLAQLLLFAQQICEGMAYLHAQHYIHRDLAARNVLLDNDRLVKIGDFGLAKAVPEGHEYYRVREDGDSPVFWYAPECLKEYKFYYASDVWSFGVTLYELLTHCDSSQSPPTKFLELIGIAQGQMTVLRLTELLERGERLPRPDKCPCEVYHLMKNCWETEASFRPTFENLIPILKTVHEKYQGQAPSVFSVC

[2] = molecular target: T2, JAK1 (Homo sapiens, UniProt P23458); assay: JAK1 inhibition (Table 4); settings: read-out: JAK1 Ki
T2 construct: made in house; host or cells: SF9 insect cells (baculovirus)

[3] = molecular target: T3, JAK2 (Homo sapiens, UniProt O60674); assay: JAK2 inhibition (Table 4); settings: read-out: JAK2 Ki
T3 construct: made in house; host or cells: SF9 insect cells (baculovirus)

[4] = molecular target: T4, JAK3 (Homo sapiens, UniProt P52333); assay: JAK3 inhibition (Table 4); settings: read-out: JAK3 Ki
T4 construct: made in house; host or cells: SF9 insect cells (baculovirus)
T4 sequence (P52333 783-1124): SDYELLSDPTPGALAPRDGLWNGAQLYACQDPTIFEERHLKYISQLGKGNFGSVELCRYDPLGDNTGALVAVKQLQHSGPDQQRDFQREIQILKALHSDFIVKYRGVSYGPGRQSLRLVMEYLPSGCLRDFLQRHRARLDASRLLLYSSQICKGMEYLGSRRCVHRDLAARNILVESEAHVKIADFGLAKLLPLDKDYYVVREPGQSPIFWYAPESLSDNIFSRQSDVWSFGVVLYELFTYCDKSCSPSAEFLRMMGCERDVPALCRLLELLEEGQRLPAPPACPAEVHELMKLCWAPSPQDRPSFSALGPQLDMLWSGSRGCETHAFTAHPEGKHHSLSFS

T2 sequence (P23458 852-1154): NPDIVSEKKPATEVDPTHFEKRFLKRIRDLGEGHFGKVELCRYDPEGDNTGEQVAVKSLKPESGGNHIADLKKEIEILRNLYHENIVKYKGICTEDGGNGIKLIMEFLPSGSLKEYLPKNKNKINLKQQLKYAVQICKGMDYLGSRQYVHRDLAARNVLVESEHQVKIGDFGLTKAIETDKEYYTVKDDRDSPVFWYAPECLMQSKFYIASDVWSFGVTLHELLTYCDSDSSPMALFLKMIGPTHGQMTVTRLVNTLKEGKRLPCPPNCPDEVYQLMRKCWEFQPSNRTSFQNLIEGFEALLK
T3 sequence (O60674 812-1132): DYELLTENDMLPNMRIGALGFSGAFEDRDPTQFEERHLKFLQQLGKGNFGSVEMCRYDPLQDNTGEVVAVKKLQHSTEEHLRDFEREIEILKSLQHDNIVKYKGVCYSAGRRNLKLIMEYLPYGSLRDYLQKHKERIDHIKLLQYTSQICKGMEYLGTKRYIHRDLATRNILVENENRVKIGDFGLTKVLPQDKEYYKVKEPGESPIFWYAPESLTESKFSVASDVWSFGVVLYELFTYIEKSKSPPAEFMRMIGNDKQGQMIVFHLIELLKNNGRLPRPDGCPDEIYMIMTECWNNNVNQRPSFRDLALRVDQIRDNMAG

SMILES	Ki [1] [nM]	Ki [2] [nM]	Ki [3] [nM]	Ki [4] [nM]
CO[C@H](C)c1nc2cnc3[nH]ccc3c2n1C1CCCCC1 [Example 685, 1-Cyclohexyl-2-((R)-1-methoxy-ethyl)-1,6-dihydro-1,2,3,5,6-tetraaza-as-indacene]	125	37.1	115	34.4
C[C@@H](O)c1nc2cnc3[nH]ccc3c2n1[C@@H]1CCN(S(C)(=O)=O)C1 [Example 686, (R)-1-[1-((R)-1-Methanesulfonyl-pyrrolidin-3-yl)-1,6-dihydro-1,2,3,5,6-tetraaza-as-indacen-2-yl]-ethanol]	4.17	47.4	27	15.3
C[C@@H](O)c1nc2cnc3[nH]ccc3c2n1[C@@H]1CCNC1 [Example 687, (R)-1-((R)-1-Pyrrolidin-3-yl-1,6-dihydro-1,2,3,5,6-tetraaza-as-indacen-2-yl)-ethanol]	834	167	1480	858
C[C@@H](O)c1nc2cnc3[nH]ccc3c2n1[C@@H]1CCC[C@@H](O)C1 [Example 689, (1R,3R)-3-[2-((R)-1-Hydroxy-ethyl)-6H-1,2,3,5,6-tetraaza-as-indacen-1-yl]-cyclohexanol]	5.59	2.73	52.4	57
CC(C)(C)[S+]([O-])NCc1nc2cnc3[nH]ccc3c2n1C1CCCCC1 (centres unmarked) [Example 690, 2-Methyl-propane-2-sulfinic acid (1-cyclohyl-1,6-dihydro-1,2,3,5,6-tetraaza-as-indacen-2-ylmethyl)-amide]	270	62.2	199	229
CC(CF)N1CCC(n2c([C@@H](C)O)nc3cnc4[nH]ccc4c32)CC1 (some centres unmarked) [Example 691, 1-{1-[1-(2-Fluoro-1-methyl-ethyl)-piperidin-4-yl]-1,6-dihydro-1,2,3,5,6-tetraaza-as-indacen-2-yl}-ethanol]	750	61.4	320	206
CS(=O)(=O)NCCc1nc2cnc3[nH]ccc3c2n1C1CC2CCC1C2 (centres unmarked) [Example 694, N-[2-(1-Bicyclo[2.2.1]hept-2-yl-1,6-dihydro-1,2,3,5,6-tetraaza-as-indacen-2-yl)-ethyl]-methanesulfonamide]	7.58	0.55	5.63	20.3
N#CCCN1CCC(n2c(CNCC(F)(F)F)nc3cnc4[nH]ccc4c32)CC1 [Example 695, 3-(4-{2-[(2,2,2-Trifluoro-ethylamino)-methyl]-6H-1,2,3,5,6-tetraaza-as-indacen-1-yl}-piperidin-1-yl)-propionitrile]	483	28.4	77.7	63.1
O=S1(=O)CCCN1Cc1nc2cnc3[nH]ccc3c2n1C1CCCCC1 [Example 696, 1-Cyclohyl-2-(1,1-dioxo-1,1,6-isothiazolidin-2-ylmethyl)-1,6-dihydro-1,2,3,5,6-tetraaza-as-indacene]	49.6	13.6	66.8	57.5
CC(F)CN1CCC(n2c([C@@H](C)O)nc3cnc4[nH]ccc4c32)CC1 (stereo partly drawn) [Example 697, (R)-1-{1-[1-(2-Fluoro-propyl)-piperidin-4-yl]-1,6-dihydro-1,2,3,5,6-tetraaza-as-indacen-2-yl}-ethanol]	32.5	3.1	64.8	36.1
Cc1nc2cnc3[nH]ccc3c2n1C1CCN(CC(O)CO)CC1 (centres unmarked) [Example 698, 3-[4-(2-Methyl-6H-1,2,3,5,6-tetraaza-as-indacen-1-yl)-piperidin-1-yl]-propane-1,2-diol]	74.4	6.41	25.6	66.9
CC(O)c1nc2cnc3[nH]ccc3c2n1CC1CCCO1 (centres unmarked) [Example 699, 1-[1-(Tetrahydro-furan-2-ylmethyl)-1,6-dihydro-1,2,3,5,6-tetraaza-as-indacen-2-yl]-ethanol]	1070	235	131	280
CC(O)c1nc2cnc3[nH]ccc3c2n1CC1CCCO1 (centres unmarked) [Example 700, 1-[1-(Tetrahydro-furan-2-ylmethyl)-1,6-dihydro-1,2,3,5,6-tetraaza-as-indacen-2-yl]-ethanol]	1430	478	617	546
Cc1nc2cnc3[nH]ccc3c2n1C1CCN(CC(C)O)CC1 (centres unmarked) [Example 701, 1-[4-(2-Methyl-6H-1,2,3,5,6-tetraaza-as-indacen-1-yl)-piperidin-1-yl]-propan-2-ol]	202	15.9	60.6	234

More lines, now with the values ahead:

Ki [1] [nM]	Ki [2] [nM]	Ki [3] [nM]	Ki [4] [nM]	SMILES
23.7	3.69	26.4	40.6	C[C@@H](O)c1nc2cnc3[nH]ccc3c2n1C1CCN(c2cccc(C#N)n2)CC1 [Example 702, 4-[2-((R)-1-Hydroxy-ethyl)-6H-1,2,3,5,6-tetraaza-as-indacen-1-yl]-3,4,5,6-tetrahydro-2H-[1,2]bipyridinyl-6′-carbonitrile]
182	1.97	30.1	5.01	Cc1noc(CN2CCC(n3c([C@@H](C)O)nc4cnc5[nH]ccc5c43)CC2)n1 [Example 703, (R)-1-{1-[1-(3-Methyl-[1,2,4]oxadiazol-5-ylmethyl)-piperidin-4-yl]-1,6-dihydro-1,2,3,5,6-tetraaza-as-indacen-2-yl}-ethanol]
138	2.45	56.7	12.8	C[C@@H](O)c1nc2cnc3[nH]ccc3c2n1[C@H]1CCN(Cc2cnco2)C[C@H]1F [Example 704, 1-[1-(3-Fluoro-1-oxazol-5-ylmethyl-piperidin-4-yl)-1,6-dihydro-1,2,3,5,6-tetraaza-as-indacen-2-yl]-ethanol]
665	48.6	340	311	OC1CCN(Cc2nc3cnc4[nH]ccc4c3n2C2CCN(CC(F)F)CC2)CC1 [Example 705, 1-{1-[1-(2,2-Difluoro-ethyl)-piperidin-4-yl]-1,6-dihydro-1,2,3,5,6-tetraaza-as-indacen-2-ylmethyl}-piperidin-4-ol]
77.5	11.4	38.6	79.8	OC1CCC(n2cnc3cnc4[nH]ccc4c32)C1 (centres unmarked) [Example 708, 3-(6H-1,2,3,5,6-Tetraaza-as-indacen-1-yl)-cyclopentanol]
44.4	6.03	24	56.3	O[C@H]1CC[C@@H](n2cnc3cnc4[nH]ccc4c32)C1 [Example 709, (1S,3R)-3-(6H-1,2,3,5,6-Tetraaza-as-indacen-1-yl)-cyclopentanol]
50.6	6.85	34.3	45	O[C@@H]1CC[C@H](n2cnc3cnc4[nH]ccc4c32)C1 [Example 710, (1R,3S)-3-(6H-1,2,3,5,6-Tetraaza-as-indacen-1-yl)-cyclopentanol]
70.3	14.1	36.9	15.8	O[C@@H]1CC[C@@H](n2cnc3cnc4[nH]ccc4c32)C1 [Example 711, (1R,3R)-3-(6H-1,2,3,5,6-Tetraaza-as-indacen-1-yl)-cyclopentanol]
114	15.3	44.9	29.7	O[C@H]1CC[C@H](n2cnc3cnc4[nH]ccc4c32)C1 [Example 712, (1S,3S)-3-(6H-1,2,3,5,6-Tetraaza-as-indacen-1-yl)-cyclopentanol]
62.7	8.14	15	202	C[C@]1(O)CC[C@H](n2nnc3cnc4[nH]ccc4c32)CC1 [Example 713, Trans-1-Methyl-4-(6H-1,2,3,5,6-pentaaza-as-indacen-1-yl)-cyclohexanol]
28.6	5.29	9.89	105	C[C@]1(O)CC[C@@H](n2nnc3cnc4[nH]ccc4c32)CC1 [Example 714, Cis-1-Methyl-4-(6H-1,2,3,5,6-pentaaza-as-indacen-1-yl)-cyclohexanol]
58.2	11.5	16.9	109	OC[C@]1(O)CC[C@H](n2nnc3cnc4[nH]ccc4c32)CC1 [Example 715, Trans-1-Hydroxymethyl-4-(6H-1,2,3,5,6-pentaaza-as-indacen-1-yl)-cyclohexanol]
74.3	10.6	23.3	167	OC[C@]1(O)CC[C@@H](n2nnc3cnc4[nH]ccc4c32)CC1 [Example 716, Cis-1-Hydroxymethyl-4-(6H-1,2,3,5,6-pentaaza-as-indacen-1-yl)-cyclohexanol]
30.4	4.07	23.2	22	Cc1nc2cnc3[nH]ccc3c2n1[C@H]1CC[C@@H](NCC(F)(F)F)C1 [Example 719, [(1R,3S)-3-(2-Methyl-6H-1,3,5,6-tetraaza-as-indacen-1-yl)-cyclopentyl]-(2,2,2-trifluoro-ethyl)-amine]
54.5	6.6	18.3	88.1	Cc1nc2cnc3[nH]ccc3c2n1[C@@H]1CC[C@@H](NCC(F)(F)F)C1 [Example 720, [(1R,3R)-3-(2-Methyl-6H-1,3,5,6-tetraaza-as-indacen-1-yl)-cyclopentyl]-(2,2,2-trifluoro-ethyl)-amine]
